# Literature values, collected in patent US20060234982A1 (priority 2003, published 2006).
# How the values were obtained:
# HIV-1 = conditions: in vitro, with recombinant soluble CD4, castanospermine or recombinant interferon-α
# [1] = not given; remark: listed apart in the source
# HBV = conditions: variety of cell types
# [2] = relative to tenofovir, HIV in culture
compound,measurement,setting,value
"Cc1cn([C@H]2C[C@H](N=[N+]=[N-])[C@@H](CO)O2)c(=O)[nH]c1=O [AZT, 3′-azido, 3′-deoxythymidine]",antiviral activity in combination,HIV-1,synergistic antiviral activity
"C[C@H](Cn1cnc2c(N)ncnc21)OCP(=O)(O)O [Tenofovir, (R)-9-(2-phosphonylmethoxypropyl)adenine]",pKa,,3.8
"CC(C)OC(=O)[C@H](C)N[P@](=O)(CO[C@H](C)Cn1cnc2c(N)ncnc21)Oc1ccccc1 [GS-7340, 9-[(R)-2-[[(S)-[[(S)-1-(isopropoxycarbonyl)ethyl]amino]phenoxyphosphinyl]methoxy]propyl]adenine]",hydrolysis in lymphatic tissue,[1]; dogs and rhesus monkeys,selectively hydrolyzed inside lymphatic tissue
same,plasma stability,[1]; dogs and rhesus monkeys,stable in plasma
same,oral bioavailability,"[1]; dogs and rhesus monkeys, oral",20%
same,tissue distribution,"[1]; in vivo and in vitro characterization, selective intracellular activation",preferential distribution in lymphatic tissues
same,fold more effective than tenofovir against HIV in culture,HIV; [2],100 fold
same,times more effective than tenofovir against HIV in culture,HIV; [2],1000 times
same,S-configuration (at phosphorus) diastereomer more effective than R-configuration diastereomer,HIV; relative to the diastereomer with R-configuration at P,10 fold
same,effectiveness against HIV in vitro,HIV; variety of cell types,effective
same,effectiveness against HBV in vitro,HBV,effective
